# Data reported in US11660298B1, “Preventing thermal trauma by pre-treatment with Icilin” (priority 2019, dated 2023).
# Assays:
# Interleukin-6 (IL-6) = experiment: Indirect ELISA of IL-6 expression in fibroblasts; type: cell-based, Human
# Procedure: (§1) Human Foreskin Fibroblasts (HFF) (ATCC, Manassas, Va.) were cultured in Dulbecco's Modified Eagle Medium Nutrient Mixture F-12 with 10% Fetal Bovine Serum, 1% penicillin streptomycin. 0.05% Trypsin EDTA was used for subculture (Invitrogen, Grand Isl., N.Y.). Cells were incubated at 370 Celsius and 5% CO2, and grown in 96 well, T25 or T75 Corning Tissue Culture vessels. When cells became confluent, they were trypsinized using 0.05% trypsin/EDTA. Cells used for the various assays were plated at 0.2×10^6 cells/mL unless otherwise noted. Fibroblasts were selected due to their critical role in skin wound recovery. Fibroblasts were fluorescently imaged with a Nikon Eclipse TS100 Microscope (Nikon, Melville, N.Y.). An in vitro burn model was created to replicate the severity of a third-degree burn. Cells were plated in a Polystyrene 96 Well Plate (100 μL per well) then burned in a VWR Incubating Micro Plate Shaker (VWR, Bridgeport, N.J.) via its adjustable heat setting. Thermal trauma (burning) was determined to take place at 50° C. for a total of 7.5 minutes (FIG. 1b). This temperature represented cell viability >50% 24 hours after the thermal injury treatment. Temperature of plate was confirmed using a Fluke 63 Infrared Thermometer (Fluke, Phoenix, Ariz.). […] The 96-well plate was read to measure absorbance at 405 nm in a microplate reader (BioTek, Winooski, Vt.).
# [1] = tested on: Reactive Oxygen Species (ROS); experiment: ROS-Glo H2O2 assay of Reactive Oxygen Species in fibroblasts; type: cell-based, Human
# Procedure: Human Foreskin Fibroblasts (HFF) (ATCC, Manassas, Va.) were cultured in Dulbecco's Modified Eagle Medium Nutrient Mixture F-12 with 10% Fetal Bovine Serum, 1% penicillin streptomycin. 0.05% Trypsin EDTA was used for subculture (Invitrogen, Grand Isl., N.Y.). Cells were incubated at 370 Celsius and 5% CO2, and grown in 96 well, T25 or T75 Corning Tissue Culture vessels. When cells became confluent, they were trypsinized using 0.05% trypsin/EDTA. Cells used for the various assays were plated at 0.2×10^6 cells/mL unless otherwise noted. Fibroblasts were selected due to their critical role in skin wound recovery. Fibroblasts were fluorescently imaged with a Nikon Eclipse TS100 Microscope (Nikon, Melville, N.Y.). An in vitro burn model was created to replicate the severity of a third-degree burn. Cells were plated in a Polystyrene 96 Well Plate (100 μL per well) then burned in a VWR Incubating Micro Plate Shaker (VWR, Bridgeport, N.J.) via its adjustable heat setting. Thermal trauma (burning) was determined to take place at 50° C. for a total of 7.5 minutes (FIG. 1b). This temperature represented cell viability >50% 24 hours after the thermal injury treatment. […] ROS was measured through ROS-GIo™ H2O2 Assay (Promega, Madison, Wis.). […] The well plate was then incubated at room temperature for 20 minutes then measured for luminescence (see FIG. 7).
# [2] = tested on: Tumor Necrosis Factor-α (TNF-α); experiment: Indirect ELISA of TNF-α expression in fibroblasts; type: cell-based, Human
# Procedure: as §1
# [3] = tested on: Transient receptor potential cation channel subfamily M member 8 (TRPM8); experiment: TRPM8 expression levels in fibroblasts; type: cell-based, Human
# Procedure: Human Foreskin Fibroblasts (HFF) (ATCC, Manassas, Va.) were cultured in Dulbecco's Modified Eagle Medium Nutrient Mixture F-12 with 10% Fetal Bovine Serum, 1% penicillin streptomycin. 0.05% Trypsin EDTA was used for subculture (Invitrogen, Grand Isl., N.Y.). Cells were incubated at 370 Celsius and 5% CO2, and grown in 96 well, T25 or T75 Corning Tissue Culture vessels. When cells became confluent, they were trypsinized using 0.05% trypsin/EDTA. Cells used for the various assays were plated at 0.2×10^6 cells/mL unless otherwise noted. Fibroblasts were selected due to their critical role in skin wound recovery. Fibroblasts were fluorescently imaged with a Nikon Eclipse TS100 Microscope (Nikon, Melville, N.Y.). An in vitro burn model was created to replicate the severity of a third-degree burn. Cells were plated in a Polystyrene 96 Well Plate (100 μL per well) then burned in a VWR Incubating Micro Plate Shaker (VWR, Bridgeport, N.J.) via its adjustable heat setting. Thermal trauma (burning) was determined to take place at 50° C. for a total of 7.5 minutes (FIG. 1b). This temperature represented cell viability >50% 24 hours after the thermal injury treatment. Temperature of plate was confirmed using a Fluke 63 Infrared Thermometer (Fluke, Phoenix, Ariz.). […]
# [4] = tested on: Human Foreskin Fibroblasts (HFF); experiment: Fibroblast viability in the in vitro burn model (MTS / trypan blue exclusion); type: cell-based; details: thermally challenged fibroblasts (50° C., 7.5 minutes), Icilin pre-treatment 0.0002-0.02 nM in DMSO, vs untreated burned fibroblasts, about 24 hours after burning
# Procedure: as §1, with “treatment. […] Proliferation” for “treatment. Temperature of plate”, “was determined” for “was confirmed”, “using the MTS assay.” for “using a Fluke 63 Infrared Thermometer (Fluke, Phoenix, Ariz.).”, “at 490” for “at 405”, “nm using” for “nm in”, “Vt.). Viability was determined by trypan blue exclusion assays. […]” for “Vt.).”
# Interleukin-8 (IL-8) = experiment: Indirect ELISA of IL-8 expression in fibroblasts; type: cell-based, Human; details: non-thermally challenged and thermally challenged fibroblasts, Icilin 0.0002-0.02 nM
# Procedure: as §1
# Interleukin-1β (IL-1β) = experiment: Indirect ELISA of IL-1β expression in fibroblasts; type: cell-based, Human
# Procedure: as §1
# TRPM8 = TRPM8 (Homo sapiens, UniProt Q7Z2W7); details: super-cooling chemical; comparison with menthol; cited from earlier work
# [5] = non-thermally challenged fibroblasts, all Icilin concentrations
# Chain of TRPM8 (Q7Z2W7 whole entry, species assumed): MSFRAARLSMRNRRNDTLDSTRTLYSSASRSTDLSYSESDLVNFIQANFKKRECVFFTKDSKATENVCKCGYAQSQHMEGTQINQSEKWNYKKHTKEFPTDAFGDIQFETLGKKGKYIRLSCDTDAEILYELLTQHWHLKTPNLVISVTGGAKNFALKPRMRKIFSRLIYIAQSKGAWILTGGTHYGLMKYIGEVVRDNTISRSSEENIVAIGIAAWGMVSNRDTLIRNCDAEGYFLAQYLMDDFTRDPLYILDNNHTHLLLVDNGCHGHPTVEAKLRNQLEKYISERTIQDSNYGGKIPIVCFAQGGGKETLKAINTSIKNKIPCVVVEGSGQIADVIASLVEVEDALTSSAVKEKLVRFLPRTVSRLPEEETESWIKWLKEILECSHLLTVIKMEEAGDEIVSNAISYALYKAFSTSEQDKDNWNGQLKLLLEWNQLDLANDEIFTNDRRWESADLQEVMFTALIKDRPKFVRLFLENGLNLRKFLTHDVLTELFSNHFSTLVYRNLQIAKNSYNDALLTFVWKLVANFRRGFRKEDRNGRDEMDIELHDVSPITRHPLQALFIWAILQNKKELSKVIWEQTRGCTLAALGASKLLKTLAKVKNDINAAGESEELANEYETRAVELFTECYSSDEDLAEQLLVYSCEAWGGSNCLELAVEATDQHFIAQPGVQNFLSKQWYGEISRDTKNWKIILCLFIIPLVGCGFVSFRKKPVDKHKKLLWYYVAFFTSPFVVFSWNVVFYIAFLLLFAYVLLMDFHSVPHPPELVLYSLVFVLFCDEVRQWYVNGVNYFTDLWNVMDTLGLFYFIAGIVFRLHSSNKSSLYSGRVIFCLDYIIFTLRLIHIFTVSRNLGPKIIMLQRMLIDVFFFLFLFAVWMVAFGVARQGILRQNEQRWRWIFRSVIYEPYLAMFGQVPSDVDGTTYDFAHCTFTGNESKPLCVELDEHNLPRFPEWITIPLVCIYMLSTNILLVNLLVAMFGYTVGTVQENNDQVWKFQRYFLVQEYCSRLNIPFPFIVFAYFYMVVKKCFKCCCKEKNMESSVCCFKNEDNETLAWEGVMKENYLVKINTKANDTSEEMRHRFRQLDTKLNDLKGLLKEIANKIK
compound,measurement,setting,value
O=C1NC(c2cccc([N+](=O)[O-])c2)=CCN1c1ccccc1O [Icilin],IL-6 expression,"Interleukin-6 (IL-6); non-thermally challenged fibroblasts, Icilin 0.0002-0.02 nM",increased IL-6 expression
same,IL-6 expression,"Interleukin-6 (IL-6); thermally challenged fibroblasts, Icilin pre-treatment 0.0002-0.02 nM",significant decrease in IL-6 expression
same,ROS levels,[1]; [5],significantly reduces ROS levels
same,ROS levels,"[1]; thermally challenged fibroblasts, Icilin pre-treatment at 0.02 nM",essentially restore ROS levels of thermally challenged fibroblasts to their normal quantities
same,TNF-α expression,"[2]; fibroblasts without thermal treatment, increasing Icilin concentrations",steady increase in TNF-α expression
same,TNF-α expression,"[2]; thermally challenged fibroblasts, Icilin pre-treatment, increasing concentrations",dropped significantly
same,TRPM8 expression,[3]; [5],significantly increased
same,TRPM8 expression,"[3]; thermally challenged fibroblasts, Icilin pre-treatment",increase in TRPM8 expression was maintained
same,fibroblast viability,[4],significantly higher than the untreated burned fibroblasts
same,IL-8 expression,Interleukin-8 (IL-8),no noteworthy effect on IL-8 expression
same,IL-1β expression,"Interleukin-1β (IL-1β); non-thermally challenged fibroblasts, increasing concentrations of Icilin",IL-1β expression also increases
same,IL-1β levels compared with non-thermally challenged fibroblasts at the same Icilin concentration,"Interleukin-1β (IL-1β); thermally challenged fibroblasts, Icilin pre-treatment, all concentrations",below the levels of the non-thermally challenged fibroblasts
same,potency relative to menthol,TRPM8,200 times
